Like-named read-outs stand apart in the source and are kept apart here.
Legend:
Type in all cases: cell-based
Micrococcus luteus B-109 = assay: Bactericidal activity, agar diffusion, M. luteus; conditions: Micrococcus luteus, B109, 2 mM/L
Excerpt: (§1) Plant pathogenic bacterial strains Micrococcus luteus B-109, Pectobacterium atrosepticum 1043, Pectobacterium carotovorum subsp. carotovorum MI, Pseudomonas fluorescens EL-2.1, and Xanthomonas campestris B-610 and fungal strain Fusarium oxysporum IBPPM 543 were obtained from the specialized scientific culture collection of IBPPM RAS (WFCC no. 975, WDCM no. 1021) (CM IBPPM). Pathogenic fungus Phytophthora cactorum VKM F-985 provided by the All-Russian Collection of Microorganisms (VKM) and deposited at A.E. Favorsky Irkutsk Institute of Chemistry, SB RAS, was also used as test organism. Bacteria M. luteus, P. carotovorum subsp. carotovorum, P. atrosepticum, and Ps. fluorescens were grown in meat-peptone medium (BP), and X. campestris was grown in the medium with glucose, yeast extract, and calcium carbonate (GYCa). Solid media contained Bacto agar (18 g/L); pH was adjusted to 7.2-7.4. All bacterial cultures were grown at 28°C. The mycelial cultures of F. oxysporum and P. cactorum were grown on a glucose-peptone-yeast (GPY) nutrient medium at 27 °C. For inoculum preparation, both fungal strains were initially grown on the agar GPY in Petri dishes and then transferred into the seed medium by punching out 5 mm of the agar plate culture with a self-designed cutter.
(§2) Antibacterial and antifungal activities of the compounds were explored using the agar diffusion method and the technique of a phytopathogen radial growth inhibition. Method of diffusion in agar (measuring the diameter of growth inhibition zones) was used for determining the bactericidal activity. The 6-mm wells were made in ager medium (GYCa for Xanthomonas campestris or BP for other bacteria). Bacterial suspensions were distributed over the agar surface, and the tested compound's solution (150 μl) was added to each well. The width of growth inhibition zones around the wells was determined after incubation for 36-40 h.
(§3) The solutions of tested compounds were prepared with a concentration of 2 mmol/l (stock solution). For comparison, test compounds were also commonly applied disinfecting agents and antibiotics.

[1] = system: Xanthomonas campestris B-610; assay: Bactericidal activity, agar diffusion, X. campestris; conditions: Xanthomonas campestris, B610, 2 mM/L
Excerpt: as §1, §2, §3

[2] = system: Fusarium oxysporum IBPPM 543; assay: Fungicidal activity, radial growth inhibition, F. oxysporum; conditions: for EC50: Fusarium oxysporum, IBPPM543, 168 h, day 7, EC50 = 50C/I, read-out: EC50, μg/mL at day 7
Excerpt: as §1
(§4) For the fungicidal activity analysis, radial growth (colony diameters) of the fungi on a solid medium in the absence and in the presence of the compounds 3a,c-g solutions at various concentrations were compared. The method consisted of the following: sterile, melted and then cooled to about 60°C GPY agar medium (20.0 ml) was mixed with the precisely measured volumes of the solutions under question, and poured into a sterile Petri dish (90 mm i.d.). After solidification of GPY agar, the media were inoculated by the fungus using 10-day-old cultures of F. oxysporum or P. cactorum. The inoculation was done by transferring a 5-mm (i.d.) GPY-agar block covered with mycelium to the center of the Petri dish followed by incubation in a thermostat at 27°C. The fungicidal effect was scored by the size of mycelium colony on a Petri dish compared to the control without fungicidal admixtures to GPY agar. Each treatment was performed in at least four replicates in two independent experiments. The observation period ended when the control Petri dish was filled with mycelium (usually after 12 days). The inhibition of the phytopathogen colony growth by the compounds 3a,c-g or fludioxonil solutions was calculated as a percentage by which the mycelium radial propagation was decreased compared to the unaffected control, the latter was taken as 100 % of growth (or zero percent of inhibition). The EC50 value was calculated as the compound concentration at which the radial growth of the fungus colony was decreased by 50 % relative to the non-fungicidal control, according to the formula EC50 = 50C/I based on the approach developed e.g., in [34, 35].
as §3

[3] = system: Phytophthora cactorum VKM F-985; assay: Fungicidal activity, radial growth inhibition, P. cactorum; conditions: for EC50: Phytophthora cactorum, 168 h, day 7, EC50 = 50C/I, read-out: EC50, μg/mL at day 7
Excerpt: as §1, §4, §3

[4] = 150 μl per well, 36-40 h, read-out: width of the inhibition zone
[5] = read-out: Inhibition zone width (mm), not less
[6] = C 6.02 μg/mL, age of the fungus 3 days
[7] = C 6.02 μg/mL, age of the fungus 5 days
[8] = C 6.02 μg/mL, age of the fungus 7 days
[9] = C 6.02 μg/mL, age of the fungus 9 days
[10] = C 12.04 μg/mL, age of the fungus 3 days
[11] = C 12.04 μg/mL, age of the fungus 5 days
[12] = C 12.04 μg/mL, age of the fungus 7 days
[13] = C 12.04 μg/mL, age of the fungus 9 days
[14] = C 6.30 μg/mL, age of the fungus 3 days
[15] = C 6.30 μg/mL, age of the fungus 5 days
[16] = C 6.30 μg/mL, age of the fungus 7 days
[17] = C 6.30 μg/mL, age of the fungus 9 days
[18] = C 12.60 μg/mL, age of the fungus 3 days
[19] = C 12.60 μg/mL, age of the fungus 5 days
[20] = C 12.60 μg/mL, age of the fungus 7 days
[21] = C 12.60 μg/mL, age of the fungus 9 days

Compound: CC[N+](CC)(CC)CC(=O)N/N=C1\C(=O)N(Cc2cc(C(C)(C)C)c(O)c(C(C)(C)C)c2)c2ccccc21 [Compound 3a, 2-(2-(1-(3,5-Di-tert-butyl-4-hydroxybenzyl)-2-oxoindolin-3-ylidene)hydrazinyl)-N,N,N-triethyl-2-oxoethanammonium bromide]
- zone of inhibition at 2000 µM (Micrococcus luteus B-109; [4]): 9 mm
- zone of inhibition at 2000 µM (Micrococcus luteus B-109; [5]): ≥ 9 mm
- zone of inhibition at 2000 µM [1, 4]: 10 mm
- zone of inhibition at 2000 µM [1, 5]: ≥ 10 mm
- Inhibition value, I (%) [2, 6]: 11%
- Inhibition value, I (%) [2, 7]: 4%
- Inhibition value, I (%) [2, 8]: 9%
- Inhibition value, I (%) [2, 9]: 0%
- Inhibition value, I (%) [2, 10]: 14%
- Inhibition value, I (%) [2, 11]: 12%
- Inhibition value, I (%) [2, 12]: 18%
- Inhibition value, I (%) [2, 13]: 3%
- Inhibition value, I (%) ([2]; C 24.08 μg/mL, age of the fungus 3 days): 24%
- Inhibition value, I (%) ([2]; C 24.08 μg/mL, age of the fungus 5 days): 16%
- Inhibition value, I (%) ([2]; C 24.08 μg/mL, age of the fungus 7 days): 27%
- Inhibition value, I (%) ([2]; C 24.08 μg/mL, age of the fungus 9 days): 4%
- Inhibition value, I (%) ([2]; C 36.12 μg/mL, age of the fungus 3 days): 28%
- Inhibition value, I (%) ([2]; C 36.12 μg/mL, age of the fungus 5 days): 24%
- Inhibition value, I (%) ([2]; C 36.12 μg/mL, age of the fungus 7 days): 30%
- Inhibition value, I (%) ([2]; C 36.12 μg/mL, age of the fungus 9 days): 12%
- EC50 [2]: 33.4 µg/mL
- Inhibition value, I (%) ([3]; C 3.01 μg/mL, age of the fungus 3 days): 4%
- Inhibition value, I (%) ([3]; C 3.01 μg/mL, age of the fungus 5 days): 9%
- Inhibition value, I (%) ([3]; C 3.01 μg/mL, age of the fungus 7 days): 15%
- Inhibition value, I (%) ([3]; C 3.01 μg/mL, age of the fungus 9 days): 1%
- Inhibition value, I (%) ([3]; C 3.01 μg/mL, age of the fungus 12 days): 0%
- Inhibition value, I (%) [3, 6]: 13%
- Inhibition value, I (%) [3, 7]: 21%
- Inhibition value, I (%) [3, 8]: 22%
- Inhibition value, I (%) [3, 9]: 4%
- Inhibition value, I (%) ([3]; C 6.02 μg/mL, age of the fungus 12 days): 5%
- Inhibition value, I (%) ([3]; C 9.03 μg/mL, age of the fungus 3 days): 17%
- Inhibition value, I (%) ([3]; C 9.03 μg/mL, age of the fungus 5 days): 22%
- Inhibition value, I (%) ([3]; C 9.03 μg/mL, age of the fungus 7 days): 25%
- Inhibition value, I (%) ([3]; C 9.03 μg/mL, age of the fungus 9 days): 4%
- Inhibition value, I (%) ([3]; C 9.03 μg/mL, age of the fungus 12 days): 5%
- Inhibition value, I (%) [3, 10]: 40%
- Inhibition value, I (%) [3, 11]: 47%
- Inhibition value, I (%) [3, 12]: 49%
- Inhibition value, I (%) [3, 13]: 41%
- Inhibition value, I (%) ([3]; C 12.04 μg/mL, age of the fungus 12 days): 26%
- EC50 [3]: 10 µg/mL

Compound: CCc1cccc2c1N(Cc1cc(C(C)(C)C)c(O)c(C(C)(C)C)c1)C(=O)/C2=N\NC(=O)C[N+](CC)(CC)CC [Compound 3c, 2-(2-(1-(3,5-Di-tert-butyl-4-hydroxybenzyl)-7-ethyl-2-oxoindolin-3-ylidene)hydrazinyl)-N,N,N-triethyl-2-oxoethanammonium bromide]
- zone of inhibition at 2000 µM (Micrococcus luteus B-109; [4]): 10.5 mm
- zone of inhibition at 2000 µM (Micrococcus luteus B-109; [5]): ≥ 10 mm
- zone of inhibition at 2000 µM [1, 4]: 11 mm
- zone of inhibition at 2000 µM [1, 5]: ≥ 11 mm
- Inhibition value, I (%) [2, 14]: 2%
- Inhibition value, I (%) [2, 15]: 11%
- Inhibition value, I (%) [2, 16]: 30%
- Inhibition value, I (%) [2, 17]: 17%
- Inhibition value, I (%) [2, 18]: 24%
- Inhibition value, I (%) [2, 19]: 26%
- Inhibition value, I (%) [2, 20]: 33%
- Inhibition value, I (%) [2, 21]: 23%
- Inhibition value, I (%) ([2]; C 25.20 μg/mL, age of the fungus 3 days): 31%
- Inhibition value, I (%) ([2]; C 25.20 μg/mL, age of the fungus 5 days): 33%
- Inhibition value, I (%) ([2]; C 25.20 μg/mL, age of the fungus 7 days): 47%
- Inhibition value, I (%) ([2]; C 25.20 μg/mL, age of the fungus 9 days): 27%
- Inhibition value, I (%) ([2]; C 37.80 μg/mL, age of the fungus 3 days): 44%
- Inhibition value, I (%) ([2]; C 37.80 μg/mL, age of the fungus 5 days): 42%
- Inhibition value, I (%) ([2]; C 37.80 μg/mL, age of the fungus 7 days): 59%
- Inhibition value, I (%) ([2]; C 37.80 μg/mL, age of the fungus 9 days): 38%
- EC50 [2]: 10.5 µg/mL
- Inhibition value, I (%) ([3]; C 1.26 μg/mL, age of the fungus 3 days): 17%
- Inhibition value, I (%) ([3]; C 1.26 μg/mL, age of the fungus 5 days): 28%
- Inhibition value, I (%) ([3]; C 1.26 μg/mL, age of the fungus 7 days): 30%
- Inhibition value, I (%) ([3]; C 1.26 μg/mL, age of the fungus 9 days): 12%
- Inhibition value, I (%) ([3]; C 1.26 μg/mL, age of the fungus 12 days): 3%
- Inhibition value, I (%) ([3]; C 3.15 μg/mL, age of the fungus 3 days): 29%
- Inhibition value, I (%) ([3]; C 3.15 μg/mL, age of the fungus 5 days): 31%
- Inhibition value, I (%) ([3]; C 3.15 μg/mL, age of the fungus 7 days): 38%
- Inhibition value, I (%) ([3]; C 3.15 μg/mL, age of the fungus 9 days): 20%
- Inhibition value, I (%) ([3]; C 3.15 μg/mL, age of the fungus 12 days): 16%
- Inhibition value, I (%) [3, 14]: 33%
- Inhibition value, I (%) [3, 15]: 44%
- Inhibition value, I (%) [3, 16]: 45%
- Inhibition value, I (%) [3, 17]: 28%
- Inhibition value, I (%) ([3]; C 6.30 μg/mL, age of the fungus 12 days): 20%
- Inhibition value, I (%) ([3]; C 9.45 μg/mL, age of the fungus 3 days): 39%
- Inhibition value, I (%) ([3]; C 9.45 μg/mL, age of the fungus 5 days): 45%
- Inhibition value, I (%) ([3]; C 9.45 μg/mL, age of the fungus 7 days): 48%
- Inhibition value, I (%) ([3]; C 9.45 μg/mL, age of the fungus 9 days): 41%
- Inhibition value, I (%) ([3]; C 9.45 μg/mL, age of the fungus 12 days): 36%
- Inhibition value, I (%) [3, 18]: 50%
- Inhibition value, I (%) [3, 19]: 56%
- Inhibition value, I (%) [3, 20]: 61%
- Inhibition value, I (%) [3, 21]: 58%
- Inhibition value, I (%) ([3]; C 12.60 μg/mL, age of the fungus 12 days): 48%
- EC50 [3]: 2.1 µg/mL

— PMC8957246, “Synthesis and diverse biological activity profile of triethylammonium isatin-3-hydrazones” (ADMET & DMPK, 2022)
